Measured values as given in patent US10111854B2, “Synthesis and use of amine-containing flavonoids as potent anti-leishmanial agents” (The Hong Kong Polytechnic University, priority 2014, dated 2018).

Assays:
[1] = test system: L. donovani Ld39 promastigotes; assay: Anti-promastigote activity (MTS assay), L. donovani Ld39; type: cell-based; settings: 72 hours
Method in brief: (§1)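 Promastigotes (1×10^5 per well) in Schneider's medium pH 6.9 with 10% FBS, exposed to serial compound concentrations for 72 h at 27 °C. Viability by MTS/PMS reduction over 4 h, OD 490 nm; IC50 derived.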

[2] = test system: L. amazonensis LV78 promastigotes; assay: Anti-promastigote activity (MTS assay), L. amazonensis LV78; type: cell-based; settings: 72 hours
Method in brief: as §1

RAW264.7 cells [3] = assay: Reactive oxygen species (ROS) level, DCFDA, RAW264.7; type: cell-based, murine
Description: (§2) 50,000 RAW264.7 were seeded in each well of black 96-well plates overnight. Next day, RAW264.7 cells were pre-loaded with 10 μM dichlorofluorescein diacetate (DCFDA) (Abcam) for 1 hr at 37° C. with 5% CO2. A control of non-DCFDA stained cells was also included. The DCFDA-contained supplemented DMEM media was removed. The cells were re-suspended with 10 μM or 30 μM of respective tested compounds and positive control, tert-butyl hydroperoxide. In Leishmania, 1×10^7 promastigotes were also pre-loaded with 10 μM DCFDA at 27° C. for 1 hr. After removing the DCFDA-contained media, the promastigotes were seeded into black 96-well plate and incubated with 30 μM of respective compounds or positive control. The ROS level was determined at different periods of time including 2, 4, 6, 8, 20, 46 and 72 hr using microplate reader (excitation: 485 nm and emission: […]).
(§3) The ROS levels in both macrophage RAW264.7 and L. amazonensis promastigotes was measured by dichlorofluorescein diacetate (DCFDA) dye which is permeable to the cells. With oxidative stress, DCFDA would be oxidized to fluorescent DCF which is an indicator of intracellular ROS level. RAW cells or L. amazonensis promastigotes were pre-loaded with 10 μM of DCFDA for 1 hr, washed and exposed to 39, FM09, pentamidine and amphotericin B for different period of time (2, 4, 6, 8, 20, 46 and 72 hr). The fluorescence level was measured at the 520 nm using 485 nm as an excitation wavelength. 0.1% DMSO or 0.3% DMSO was used as a solvent control. The fluorescent value has been subtracted from non-DCFDA stained cells. The values were presented as mean±standard error of mean.

[4] = test system: L. donovani HU3 promastigotes; assay: Anti-promastigote activity (MTS assay), L. donovani HU3; type: cell-based; settings: 72 hours
Method in brief: as §1

[5] = test system: L. braziliensis UA847 amastigotes; assay: Anti-amastigote activity in infected PEM, L. braziliensis UA847; type: cell-based; settings: 3 days, Giemsa, read-out: Anti-amastigote activity IC50, L. baziliensis UA847
Description: Mouse peritoneal elicited macrophages (PEM) were obtained as previously described (2). A round cover slip (12 mm in diameter) was placed into each well of 24-well culture plate. Mouse PEM were resuspended in supplemented DMEM media containing 10% heat inactivated FBS (v/v), 100 U/mL penicillin and 100 μg/mL streptomycin and seeded into each well at a cell density of 1×10^5 cells per 500 μL. Macrophages were allowed to attach overnight. Non-adherent cells were removed by gentle washing with un-supplemented DMEM media twice. Adherent macrophages were infected with late-log promastigotes at a parasite-to-macrophage ratio of 20:1 overnight at 37° C. with 5% CO2. Non-internalized promastigotes were removed by washing twice with un-supplemented DMEM media. Infected macrophages were further incubated in 500 μL of supplemented DMEM media in the presence or absence of FM for 72 hours at 37° C. After incubation, cover slips were stained with Giemsa and the percentage of macrophages infected and number of amastigotes per 100 macrophages was enumerated.
PEM cells were infected with late-log promastigotes (L. amazonensis LV78, L. braziliensis UA847, L. donovani HU3, L. donovani 39) for 24 hr at 37° C. Infected macrophages were then treated with various antileishmanials and incubated for 3 days at 37° C. After 3 days, the cover slips were stained with Giemsa. The number of amastigotes per 100 macrophages were determined and used to calculate IC50 values.

RAW264.7 cells [6] = assay: Cytotoxicity, RAW264.7 macrophages; type: cell-based; settings: murine macrophages RAW264.7
Description: Promastigotes of visceral L. donovani Ld39 and LdHU3, and cutaneous L. amazonensis LV78, L. braziliensis UA847 and L. major FV1 were employed in the study. All strains were cultured in Schneider's Drosophila Medium (Invitrogen), pH 6.9 supplemented with 10% (v/v) heat inactivated fetal bovine serum (Hyclone) with 4 mM glutamine (Sigma) and 25 μg/mL gentamicin solution (Invitrogen) at 27° C. for 4 days. RAW264.7 cells were cultured in supplemented DMEM media with 10% heat inactivated FBS and 100 U/mL penicillin and 100 μg/mL of streptomycin. They were maintained at 37° C. in a humidified atmosphere with 5% CO2. The cells were split constantly after a confluent monolayer has been formed. The cells were harvested by a cell scraper.
IC50 values of known antileishmanials and the amine-containing flavonoid monomers of the present invention to promastigotes (L. amazonensis LV78, L major FV1, L. donovani HU3, L. donovani 39), macrophages (Raw 264.7 and PEM) and mouse fibroblast (L929) were determined. The anti-promastigotes activities and cytotoxicity of the amine-containing flavonoid monomers of the invention are shown in Table 1.

[7] = test system: L. donovani Ld39 amastigotes (SSG-resistant); assay: Anti-amastigote activity in infected PEM, L. donovani Ld39; type: cell-based; settings: infected PEM, 3 days, Giemsa; SSG-resistant
Method in brief: (§4)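 Readout was Giemsa counts of amastigotes per 100 macrophages and percentage infected, from which IC50 values were calculated. Treatment lasted 3 days at 37° C. It followed overnight or 24 hr infection of mouse elicited peritoneal macrophages with late-log promastigotes at a 20:1 parasite ratio.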

[8] = test system: L. major FV1 promastigotes; assay: Anti-promastigote activity (MTS assay), L. major FV1; type: cell-based; settings: 72 hours
Method in brief: as §1

[9] = test system: L. amazonensis LV78 promastigotes; assay: Reactive oxygen species (ROS) level, DCFDA, promastigotes; type: cell-based; settings: 30 μM
Description: as §2, §3

[10] = test system: peritoneal elicited macrophages (PEM); assay: Cytotoxicity, peritoneal elicited macrophages (PEM); type: cell-based, mouse; settings: peritoneal elicited macrophages; read-out: Cytotoxicity IC50, PEM
[11] = test system: L. amazonensis LV78 amastigotes; assay: Anti-amastigote activity in infected PEM, L. amazonensis LV78; type: cell-based; settings: infected PEM, 3 days, Giemsa
Method in brief: as §4

`C[C@@H]1[C@H](O)[C@@H](C)/C=C/C=C/C=C/C=C/C=C/C=C/C=C/[C@H](O[C@@H]2O[C@H](C)[C@@H](O)[C@H](N)[C@@H]2O)C[C@@H]2O[C@](O)(C[C@@H](O)C[C@@H](O)[C@H](O)CC[C@@H](O)C[C@@H](O)CC(=O)O[C@H]1C)C[C@H](O)[C@H]2C(=O)O` [Amphotericin B] was tested, and the IC50 [1] was 95 ± 20 nM, the IC50 [2] was 240 ± 30 nM and the “RAW264.7 ROS Level, Relative fold (RF)” value (RAW264.7 cells [3]; 10 μM, 2 hr) was 1.4 fold. The “RAW264.7 ROS Level, Relative fold (RF)” value (RAW264.7 cells [3]; 10 μM, 4 hr) was 1.4 fold, the “RAW264.7 ROS Level, Relative fold (RF)” value (RAW264.7 cells [3]; 10 μM, 6 hr) was 1.4 fold and the “RAW264.7 ROS Level, Relative fold (RF)” value (RAW264.7 cells [3]; 10 μM, 8 hr) was 1.2 fold. For the same molecule, the “RAW264.7 ROS Level, Relative fold (RF)” value (RAW264.7 cells [3]; 10 μM, 20 hr) was 1.0 fold, the “ROS induction in macrophages” value (RAW264.7 cells [3]; 10 μM, RAW264.7) was “No ROS induction” and the “RAW264.7 ROS Level, Relative fold (RF)” value (RAW264.7 cells [3]; 30 μM, 2 hr) was 1.6 fold. For the same molecule, the “RAW264.7 ROS Level, Relative fold (RF)” value (RAW264.7 cells [3]; 30 μM, 4 hr) was 1.6 fold, the “RAW264.7 ROS Level, Relative fold (RF)” value (RAW264.7 cells [3]; 30 μM, 6 hr) was 1.5 fold and the “RAW264.7 ROS Level, Relative fold (RF)” value (RAW264.7 cells [3]; 30 μM, 20 hr) was 1.3 fold. The “RAW264.7 ROS Level, Relative fold (RF)” value (RAW264.7 cells [3]; 30 μM, 46 hr) was 1.3 fold, the IC50 [4] was 200 nM and the IC50 [5] was 49 ± 10 nM. It also gave an IC50 (RAW264.7 cells [6]) of 12000 ± 2500 nM, an IC50 [7] of 62 nM and an IC50 [8] of 290 ± 50 nM. For the same molecule, the “L. amazon LV78 promastigote ROS Level, Relative fold (RF)” value ([9]; 2 hr) was 4.5 fold, the “L. amazon LV78 promastigote ROS Level, Relative fold (RF)” value ([9]; 4 hr) was 5.6 fold and the “L. amazon LV78 promastigote ROS Level, Relative fold (RF)” value ([9]; 6 hr) was 7.5 fold. For the same molecule, the “L. amazon LV78 promastigote ROS Level, Relative fold (RF)” value ([9]; 20 hr) was 21 fold, the “L. amazon LV78 promastigote ROS Level, Relative fold (RF)” value ([9]; 46 hr) was 27.1 fold and the “L. amazon LV78 promastigote ROS Level, Relative fold (RF)” value ([9]; 72 hr) was 24.9 fold. It also gave an IC50 [10] of 7400 ± 400 nM and an IC50 [11] of 55 ± 29 nM.
